34 compounds from US10526287B2, “LSD1 inhibitors and uses thereof” (Constellation Pharmaceuticals, Inc., priority 2015, dated 2020) can be followed below.

For orientation: IC50 means the concentration at which inhibition is half-maximal.

The structures appear in SMILES notation. Structures can show the parent of a compound that is named as a salt. Bounds are passed on as bounds.

The first assay concerns the target LSD1 (Homo sapiens, UniProt O60341). Briefly: Biochemical assay for LSD1 activity (LSD1 demethylase TR-FRET). As to conditions: Table 6; biotinylated H3K4me1 peptide, 50 minutes at room temperature, TR-FRET; read-out: LSD1_Pep_TR-FRET_1.0 (IC50 T50). (Time-resolved FRET reads energy transfer from a long-lived donor to a nearby acceptor.)
In the case of `CC/C(=C\c1ccccc1)[C@@H]1C[C@H]1N[C@H]1CC[C@H](NCC2(C(=O)O)CC2)CC1` (racemic) [Compound 223, 1-((((trans)-4-(((trans)-2-((E)-1-phenylbut-1-en-2-yl)cyclopropyl)amino)cyclohexyl)amino)methyl)cyclopropane-1-carboxylic Acid], the IC50 was below 100 nM.
On to `CC/C(=C\c1ccccc1)[C@@H]1C[C@H]1NC1CCC(NCc2ccc(C(=O)O)nc2)CC1` (mixture of isomers) [Compound 224, 5-((((trans)-4-(((trans)-2-((E)-1-phenylbut-1-en-2-yl)cyclopropyl)amino)cyclohexyl)amino)methyl)picolinic acid], for which the IC50 is below 100 nM.
The same measure, in the same setting: for `CC(C)/C(=C\c1ccccc1)[C@@H]1C[C@H]1NC1CCNCC1` (racemic) [Compound 277, N-((trans)-2-((E)-3-methyl-1-phenylbut-1-en-2-yl)cyclopropyl)piperidin-4-amine Dihydrochloride] the value was below 100 nM; for `CC(=Cc1ccc(C#N)cc1)C1CC1N[C@H]1CC[C@@H](N)CC1` (relative stereo) [Compound 131, 4-(2-(2-(((cis)-4-aminocyclohexyl)amino)cyclopropyl)prop-1-en-1-yl)benzonitrile Dihydrochloride], above 10000 nM.
The same measure, in the same setting: the result for `CC(=Cc1ccc(C#N)cc1)C1CC1N[C@H]1CC[C@H](N)CC1` (relative stereo) [Compound 132, 4-(2-(2-(((trans)-4-aminocyclohexyl)amino)cyclopropyl)prop-1-en-1-yl)benzonitrile Dihydrochloride] reads above 10000 nM.
With `CC/C(=C\c1ccccc1)[C@@H]1C[C@H]1N[C@H]1CC[C@H](NCCCC(=O)O)CC1` (relative stereo) [Compound 180, 4-(((trans)-4-(((trans)-2-((E)-1-phenylbut-1-en-2-yl)cyclopropyl)amino)cyclohexyl)amino)butanoic Acid bis(trifluoroacetic Acid) Salt], the IC50 is below 100 nM.
`C/C(=C\c1ccccc1)[C@@H]1C[C@H]1N[C@H]1CC[C@H](N(C)C)CC1` (single isomer, unassigned) [Compound 138, (trans)-N^1,N^1-dimethyl-N^4-((trans)-2-((E)-1-phenylprop-1-en-2-yl)cyclopropyl)cyclohexane-1,4-diamine]: the IC50 was below 100 nM.
Consider `COCCNC1CCC(N[C@@H]2C[C@H]2/C(C)=C/c2ccccc2)CC1` (single isomer, unassigned) [Compound 143, (trans)-N1-(2-methoxyethyl)-N4-((trans)-2-((E)-1-phenylprop-1-en-2-yl)cyclopropyl)cyclohexane-1,4-diamine bis(trifluoroacetic acid salt)], for which the IC50 is below 100 nM.
`COCCN[C@H]1CC[C@@H](N[C@@H]2C[C@H]2/C(C)=C/c2ccccc2)CC1` (single isomer, unassigned) [Compound 144, (cis)-N1-(2-methoxyethyl)-N4-((trans)-2-((E)-1-phenylprop-1-en-2-yl)cyclopropyl)cyclohexane-1,4-diamine bis(trifluoroacetic acid) salt]: the IC50 was below 100 nM.
Still for that read-out and setting: the result for `CNC(=O)CCCN[C@H]1CC[C@@H](N[C@@H]2C[C@H]2/C(C)=C/c2ccccc2)CC1` (single isomer, unassigned) [Compound 145, N-methyl-4-(((cis)-4-(((trans)-2-((E)-1-phenylprop-1-en-2-yl)cyclopropyl)amino)cyclohexyl)amino)butanamide bis(trifluoroacetic acid) salt] reads below 100 nM; that for `C/C(=C\c1ccccc1)[C@@H]1C[C@H]1N[C@H]1CC[C@H](NCCC(=O)N2CCCC2)CC1` (single isomer, unassigned) [Compound 146, 3-(((trans)-4-(((trans)-2-((E)-1-phenylprop-1-en-2-yl)cyclopropyl)amino)cyclohexyl)amino)-1-(pyrrolidin-1-yl)propan-1-one bis(trifluoroacetic acid) salt], below 100 nM.
`C/C(=C\c1ccccc1)[C@@H]1C[C@H]1N[C@H]1CC[C@H](NCC(C)(C)C(=O)O)CC1` (single isomer, unassigned) [Compound 148, 2,2-dimethyl-3-(((trans)-4-(((trans)-2-((E)-1-phenylprop-1-en-2-yl)cyclopropyl)amino)cyclohexyl)amino)propanoic acid bis(trifluoroacetic acid) salt]: the IC50 is below 100 nM.
For the compound `C/C(=C\c1ccccc1)[C@@H]1C[C@H]1N[C@H]1CC[C@@H](NCC(C)(C)C(=O)O)CC1` (single isomer, unassigned) [Compound 149, 2,2-dimethyl-3-(((cis)-4-(((trans)-2-((E)-1-phenylprop-1-en-2-yl)cyclopropyl)amino)cyclohexyl)amino)propanoic acid bis(trifluoroacetic acid) salt], the IC50 is below 100 nM.
For `C/C(=C\c1ccccc1)[C@@H]1C[C@H]1N[C@H]1CC[C@H](NCc2ccc(C(=O)O)cc2)CC1` (single isomer, unassigned) [Compound 150, 4-((((trans)-4-(((trans)-2-((E)-1-phenylprop-1-en-2-yl)cyclopropyl)amino)cyclohexyl)amino)methyl)benzoic acid bis(trifluoroacetic acid) salt], the IC50 was below 100 nM.
On the same count and under the same terms, for `C/C(=C\c1ccccc1)[C@@H]1C[C@H]1N[C@H]1CC[C@H](NCCC(N)=O)CC1` (single isomer, unassigned) [Compound 151, 3-(((trans)-4-(((trans)-2-((E)-1-phenylprop-1-en-2-yl)cyclopropyl)amino)cyclohexyl)amino)propanamide bis(trifluoroacetic acid) salt] the value was below 100 nM.

The assay is the same for the next values; noted with them: Table 7; biotinylated H3K4me1 peptide, 50 minutes at room temperature, TR-FRET; read-out: LSD1_Pep_TR-FRET_1.0 (IC50 T50).
On to `CC/C(=C\c1ccccc1)[C@@H]1C[C@H]1NC1CC2(CCN(CCC(=O)O)CC2)C1` (racemic) [Compound 225, 3-(2-(((trans)-2-((E)-1-phenylbut-1-en-2-yl)cyclopropyl)amino)-7-azaspiro[3.5]nonan-7-yl)propanoic Acid Bis Trifluoroacetate], for which the IC50 is below 100 nM.
Still for that read-out and setting: for `CC/C(=C\c1ccccc1)[C@@H]1C[C@H]1NC1CC2(C1)CN(Cc1ccc(C(=O)O)cc1)C2` (racemic) [Compound 226, 4-((6-(((trans)-2-((E)-1-phenylbut-en-2-yl)cyclopropyl)amino)-2-azaspiro[3.3]heptan-2-yl)methyl)benzoic acid bis trifluoroacetate] the value was below 100 nM; for `CC/C(=C\c1ccccc1)[C@@H]1C[C@H]1NC1CC2(CCN(Cc3ccc(C(=O)O)cc3)CC2)C1` (racemic) [Compound 227, 4-((2-(((trans)-2-((E)-1-phenylbut-1-en-2-yl)cyclopropyl)amino)-7-azaspiro[3.5]nonan-7-yl)methyl)benzoic acid dihydrochloride], below 100 nM.
The same measure, in the same setting: for `CC/C(=C\c1ccccc1)[C@@H]1C[C@H]1NC1CC2(CCN(CC(C)(C)C(=O)O)CC2)C1` (racemic) [Compound 228, 2,2-dimethyl-3-(2-(((trans)-2-(E)-1-phenylbut-1-en-2-yl)cyclopropyl)amino)-7-azaspiro[3.5]nonan-7-yl)propanoic Acid Bis Trifluoroacetate] the value was below 100 nM.
Still for that read-out and setting: the result for `CC/C(=C\c1ccccc1)[C@@H]1C[C@H]1NC1CC2(C1)CN(CC(C)(C)C(=O)O)C2` (racemic) [Compound 229] reads below 100 nM; that for `CC/C(=C\c1ccccc1)[C@@H]1C[C@H]1NC1CC2(C1)CN(CCC(=O)O)C2` (racemic) [Compound 230], below 100 nM; that for `CC/C(=C\c1ccccc1)[C@@H]1C[C@H]1NC1CC2(C1)CN(Cc1ccc(C(=O)O)nc1)C2` (racemic) [Compound 231], below 100 nM.
Regarding `CC/C(=C\c1ccccc1)[C@@H]1C[C@H]1NC[C@H]1CC[C@H](NCC(C)(C)C(=O)O)CC1` (racemic) [Compound 232], the IC50 is 100 to 1000 nM.
On the same count and under the same terms, the result for `CC/C(=C\c1ccccc1)[C@@H]1C[C@H]1NC[C@H]1C[C@H](NCC(C)(C)C(=O)O)C1` (racemic) [Compound 233] reads below 100 nM.
The same measure, in the same setting: for `CC/C(=C\c1ccccc1)[C@@H]1C[C@H]1NCC1(C)CN(Cc2ccc(C(=O)O)cc2)C1` (racemic) [Compound 235] the value was below 100 nM; for `CC/C(=C\c1ccccc1)[C@@H]1C[C@H]1NC[C@H]1C[C@H](NCc2ccc(C(=O)O)cc2)C1` (racemic) [Compound 236], below 100 nM; for `CC/C(=C\c1ccccc1)[C@@H]1C[C@H]1NC[C@H]1C[C@H](N)C1` (racemic) [Compound 239], below 100 nM.
On to `CC/C(=C\c1ccccc1)[C@@H]1C[C@H]1NCCC(C)(C)N` (racemic) [Compound 240], for which the IC50 was below 100 nM.
On the same count and under the same terms, for `CC/C(=C\c1ccccc1)[C@@H]1C[C@H]1NCCC1CN(Cc2ccc(C(=O)O)cc2)C1` (racemic) [Compound 241] the value was below 100 nM; for `CC/C(=C\c1ccccc1)[C@@H]1C[C@H]1NCc1cnn(C2CNC2)c1` (racemic) [Compound 242], below 100 nM.
The same measure, in the same setting: the result for `CC/C(=C\c1ccccc1)[C@@H]1C[C@H]1NCC1(C)CNC1` (racemic) [Compound 243] reads below 100 nM; that for `CC/C(=C\c1ccccc1)[C@@H]1C[C@H]1NC[C@H]1CC[C@H](NCc2ccc(C(=O)O)cc2)CC1` (racemic) [Compound 245, 4-((((trans)-4-((((trans)-2-((E)-1-phenylbut-1-en-2-yl)cyclopropyl)amino)methyl)cyclohexyl)amino)methyl)benzoic Acid Bis Trifluoroacetate], below 100 nM.
On the same count and under the same terms, the result for `CC/C(=C\c1ccccc1)[C@@H]1C[C@H]1NCc1cnc(N)nc1` (racemic) [Compound 246, 5-((((trans)-2-((E)-1-phenylbut-1-en-2-yl)cyclopropyl)amino)methyl)pyrimidin-2-amine Hydrochloride] reads below 100 nM; that for `CC/C(=C\c1ccccc1)[C@@H]1C[C@H]1NCc1ccccc1CN` (racemic) [Compound 247, (trans)-N-(2-(aminomethyl)benzyl)-2-((E)-1-phenylbut-1-en-2-yl)cyclopropan-1-amine], below 100 nM.
